According to patent US20110144128A1, “Heterocyclic Carboxamide Compounds as Steroid Nuclear Receptors Ligands” (EXELIXIS, INC., priority 2005, published 2011):

Experiments:
human MR = biological target: T1, human MR (Homo sapiens, UniProt P08235); experiment: GAL4-MR cell based assay, antagonist format
T1 construct: expressed in transfected cells; host or cells: CV-1 (African Green Monkey Kidney Cells), transiently transfected with pCMX-GAL4-MR
T1 sequence (P08235 671-984): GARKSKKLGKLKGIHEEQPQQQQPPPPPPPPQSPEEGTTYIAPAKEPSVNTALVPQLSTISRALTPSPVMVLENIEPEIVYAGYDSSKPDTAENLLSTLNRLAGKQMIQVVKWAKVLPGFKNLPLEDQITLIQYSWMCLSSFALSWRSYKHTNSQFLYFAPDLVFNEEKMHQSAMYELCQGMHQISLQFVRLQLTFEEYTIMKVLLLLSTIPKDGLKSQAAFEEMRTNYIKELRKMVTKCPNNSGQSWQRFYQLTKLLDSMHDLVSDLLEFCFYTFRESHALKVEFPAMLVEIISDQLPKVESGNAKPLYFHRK
Experimental: Compound activity was determined in a cell-based assay using a GAL4-MR chimera to identify compounds with the ability to modulate MR activity.
The pCMX-GAL4-MR expression plasmid was constructed by cloning nucleotides encoding amino acids 671 to 984 of human MR (see GenBank sequence AAA59571) into the vector pCMX-GAL4 (Perlmann et al., 1993,Genes & Development 7:1411-1422) comprising nucleotides encoding for amino acids 1-147 of the GAL4 DNA binding domain.
The TK-MH 100x4-Luc (GAL4UAS-TK-Luciferase) reporter construct was constructed by insertion of four copies of the Gal4 UAS (Kang et al. 1993, J. Biol. Chem. 268:9629-9635) into the Hind III site of TK-Luc. The parental plasmid, TK-Luc, was prepared by insertion of the Herpes simplex virus thymidine kinase gene promoter (−105 to +51) obtained from the plasmid pBLCAT2 by digestion with HindIII and XhoI (described in Luckow et al., 1987, Nuc. Acid. Res. 15:5490) into the plasmid MMTV-LUC described by Hollenberg and Evans, 1988, Cell 55:899-906) after removal of MMTV-LTR promoter sequence from MMTV-LUC via digestion with HindIII and XhoI. Correct cloning was confirmed by restriction digestion and/or sequencing.
Assays were performed using CV-1 (African Green Monkey Kidney Cells) (ATCC) cells grown in T175 flasks at a density of 3×10^6 cells/flask in DMEM with 5% FBS. Cells were transfected one day after plating at 70-80 percent confluency with a DNA mixture containing (per T175 flask) 9 […] pCMX-GAL4-MR, 9 μg TK-MH100x4-Luc, and 2 μg pCMX β-Gal using the transfection reagent FuGENE6 (Roche Molecular Biochemicals, Indianapolis, Ind.) following recommended protocols and instructions provided by the manufacturer, and incubated with transfection reagents for 5 hours at 37° C.
Transfected cells were trypsinized, resuspended in media, and 45 μL was added to assay plates at a density of approximately 5,000 cells/well using a MultiDrop dispenser (MTX Lab Systems, Inc., VA). The assay plates containing both compounds and screening cells were incubated for approximately 20 hours at 37° C. and 5% CO2 in a tissue culture incubator.
After incubation of the transfected cells with compounds, Lysis buffer (1% Triton X-100, 10% Glycerol, 5 mM DTT, 1 mM EGTA, 25 mM Tricine, pH 7.8) and Luciferin assay buffer (0.73 mM ATP, 22.3 mM Tricine, 0.11 mM EDTA, 33.3 mM DTT, 0.2M MgSO4, 11 mM Luciferin, 6.1 mM Coenzyme A, 0.01 mM HEPES, pH 7.8) were prepared. Media was removed from the plates and lysis buffer and luciferin assay buffer mixed in a 1:1 ratio and then 30 μl of the mixture was added to each well using a Multidrop dispenser. Plates were read on the Northstar (Applied Biosystems, Foster City, Calif.) and data was analyzed using ActivityBase (ID Business Solutions, Ltd., Guildford, Surrey, UK). If required, luciferase values may be normalized for transfection efficiency by measuring β-galactosidase activity based on expression from the pCMX-βGal expression plasmid as described previously (Willy et al., 1995, Gene & Development, 9:1033-1045).
(§1) The following table provides in vitro MR activity data of representative compounds described in the Examples. […] The “+” mark under the selectivity column is given to those compounds having greater than ten-fold antagonist activity against MR compared to at least one nuclear receptor selected from AR, ERα, GR and PR, as determined from the GAL4-AR, GAL4-ERα, GAL4-GR and GAL4-PR assays. The “++” mark under the selectivity column identifies those compounds having greater than ten-fold antagonist activity against MR compared to the four nuclear receptors AR, ERα, GR and PR, as determined from the GAL4-AR, GAL4-ERα, GAL4-GR and GAL4-PR assays.

AR, ERα, GR and PR = experiment: selectivity assays GAL4-AR, GAL4-ERα, GAL4-GR and GAL4-PR, antagonist mode; assay type: cell-based; settings: antagonist activity against MR compared to AR
Experimental: In certain cases, compounds were also evaluated for activity in selectivity assays with other steroid hormone receptor members, including AR, ER, GR and PR, as well as GAL4 alone. Steroid receptors used for selectivity assays were essentially generated as described above for pCMX-GAL4-MR, and comprised the LBD and a portion of the hinge region of the nuclear receptor of interest cloned in frame into the vector pCMX-GAL4 (Perlmann et al., 1993,Genes & Development 7:1411-1422) as described above.
Assays run in antagonist mode included agonists as follows: AR; 25 nM dihydrotestosterone (DHT), ER; 4.5 nM estradiol, GR; 20 nM dexamethasone, and PR; 2 nM medroxyprogesterone (MPA), respectively. Assays run in agonist mode contained no supplemental compounds.
as §1

## Cc1cc(C(=O)Nc2ccc(S(=O)(=O)NC(=N)N)cc2)c(C)n1-c1ccccc1C(F)(F)F [2,5-Dimethyl-1-[2-(trifluoromethyl)phenyl]-1H-pyrrole-3-carboxylic acid (4-guanidinosulfonyl-phenyl)-amide]
Human MR
  IC50: 1000 to 5000 nM
AR, ERα, GR and PR
  Selectivity: + (greater than ten-fold antagonist activity against MR compared to at least one nuclear receptor selected from AR, ERα, GR and PR)

## CCc1nc(C(=O)Nc2ccc(S(C)(=O)=O)cc2)c(C)n1-c1ccccc1C(F)(F)F [2-ethyl-5-methyl-1-(2-trifluoromethyl-phenyl)-1H-imidazole-4-carboxylic acid (4-methanesulfonyl-phenyl)-amide]
Human MR
  IC50: < 500 nM
AR, ERα, GR and PR
  Selectivity: ++ (greater than ten-fold antagonist activity against MR compared to the four nuclear receptors AR, ERα, GR and PR)

## Cc1cc(C(=O)Nc2ccc(S(N)(=O)=O)cc2)c(C)n1-c1ccccc1C(F)(F)F [2,5-Dimethyl-1-(2-trifluoromethyl-phenyl)-1H-pyrrole-3-carboxylic acid (4-sulfamoyl-phenyl)-amide]
Human MR
  IC50: < 500 nM
AR, ERα, GR and PR
  Selectivity: ++ (greater than ten-fold antagonist activity against MR compared to the four nuclear receptors AR, ERα, GR and PR)

## Cc1cc(C(=O)Nc2ccc(S(=O)(=O)C(C)C)cc2)c(C)n1-c1ccccc1C(F)(F)F [2,5-dimethyl-1-(2-trifluoromethyl-phenyl)-1H-pyrrole-3-carboxylic acid [4-(propane-2-sulfonyl)-phenyl]-amide]
Human MR
  IC50: 500 to 1000 nM
AR, ERα, GR and PR
  Selectivity: + (greater than ten-fold antagonist activity against MR compared to at least one nuclear receptor selected from AR, ERα, GR and PR)
